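The compound was tested at five concentrations on cells cultured in 96-well plates, with a 48-hour exposure period. Abbreviation: GI50, concentration required for 50% inhibition of growth.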 The source made the active and inactive calls. No stated cut-off is given here; in the data, active = GI50 up to about 1.1 µM and inactive = higher.
Assays:
Test in all cases: NCI-60 cell line screen, 48 h
786-0 = system: 786-0
A498 = system: A498
A549 = system: A549
ACHN = system: ACHN
BT-549 = system: BT-549
CAKI-1 = system: CAKI-1
CCRF-CEM = system: CCRF-CEM
COLO 205 = system: COLO 205
DU-145 = system: DU-145
EKVX = system: EKVX
HCC 2998 = system: HCC 2998
HCT-116 = system: HCT-116
HCT-15 = system: HCT-15
HL-60 = system: HL-60
HOP-62 = system: HOP-62
HT-29 = system: HT-29
Hs-578T = system: Hs-578T
K562 = system: K562
KM12 = system: KM12
M14 = system: M14
MCF7 = system: MCF7
MDA-MB-231 = system: MDA-MB-231
MDA-MB-435 = system: MDA-MB-435
MDA-N = system: MDA-N
MOLT-4 = system: MOLT-4
Malme-3M = system: Malme-3M
NCI-H226 = system: NCI-H226
NCI-H23 = system: NCI-H23
NCI-H460 = system: NCI-H460
NCI-H522 = system: NCI-H522
NCI/ADR-RES = system: NCI/ADR-RES
OVCAR-3 = system: OVCAR-3
OVCAR-4 = system: OVCAR-4
OVCAR-5 = system: OVCAR-5
PC-3 = system: PC-3
RPMI-8226 = system: RPMI-8226
RXF 393 = system: RXF 393
SF-268 = system: SF-268
SF-295 = system: SF-295
SF-539 = system: SF-539
SK-MEL-28 = system: SK-MEL-28
SK-MEL-2 = system: SK-MEL-2
SK-MEL-5 = system: SK-MEL-5
SK-OV-3 = system: SK-OV-3
SN12C = system: SN12C
SNB-19 = system: SNB-19
SNB-75 = system: SNB-75
SR = system: SR
SW-620 = system: SW-620
T47D = system: T47D
TK-10 = system: TK-10
U-251 = system: U-251
UACC-257 = system: UACC-257
UACC-62 = system: UACC-62
UO-31 = system: UO-31
HOP-92 = system: HOP-92
IGROV-1 = system: IGROV-1
LOX IMVI = system: LOX IMVI
OVCAR-8 = system: OVCAR-8

CCOC(=O)CCC(NC(=O)Cc1ccc(Nc2nc3ccccc3nc2-c2cccs2)cc1)C(=O)OCC (stereo not drawn)
GI50 (786-0): 29.6 µM (inactive) | GI50 (A498): 69.7 µM (inactive) | GI50 (A549): 64.1 µM (inactive) | GI50 (ACHN): > 100 µM (inactive) | GI50 (BT-549): > 100 µM (inactive) | GI50 (CAKI-1): > 100 µM (inactive) | GI50 (CCRF-CEM): > 100 µM (inactive) | GI50 (COLO 205): > 100 µM (inactive) | GI50 (DU-145): 44.2 µM (inactive) | GI50 (EKVX): 53.7 µM (inactive) | GI50 (HCC 2998): > 100 µM (inactive) | GI50 (HCT-116): > 100 µM (inactive) | GI50 (HCT-15): > 100 µM | GI50 (HL-60): > 100 µM (inactive) | GI50 (HOP-62): 31.9 µM (inactive) | GI50 (HT-29): > 100 µM (inactive) | GI50 (Hs-578T): 25.1 µM (inactive) | GI50 (K562): > 100 µM (inactive) | GI50 (KM12): > 100 µM (inactive) | GI50 (M14): > 100 µM (inactive) | GI50 (MCF7): 41.1 µM (inactive) | GI50 (MDA-MB-231): > 100 µM (inactive) | GI50 (MDA-MB-435): 38.1 µM (inactive) | GI50 (MDA-N): > 100 µM (inactive) | GI50 (MOLT-4): > 100 µM (inactive) | GI50 (Malme-3M): 49.8 µM (inactive) | GI50 (NCI-H226): > 100 µM (inactive) | GI50 (NCI-H23): 30.1 µM (inactive) | GI50 (NCI-H460): 81.3 µM (inactive) | GI50 (NCI-H522): 32 µM (inactive) | GI50 (NCI/ADR-RES): 61.8 µM (inactive) | GI50 (OVCAR-3): 34 µM (inactive) | GI50 (OVCAR-4): 27.4 µM (inactive) | GI50 (OVCAR-5): > 100 µM (inactive) | GI50 (PC-3): 45.7 µM (inactive) | GI50 (RPMI-8226): > 100 µM (inactive) | GI50 (RXF 393): 12.9 µM (inactive) | GI50 (SF-268): 24 µM (inactive) | GI50 (SF-295): 53.2 µM (inactive) | GI50 (SF-539): 24.9 µM (inactive) | GI50 (SK-MEL-28): > 100 µM (inactive) | GI50 (SK-MEL-2): 54.3 µM (inactive) | GI50 (SK-MEL-5): 37.4 µM (inactive) | GI50 (SK-OV-3): 40.8 µM (inactive) | GI50 (SN12C): > 100 µM (inactive) | GI50 (SNB-19): 24.7 µM (inactive) | GI50 (SNB-75): 18.1 µM (inactive) | GI50 (SR): 29.3 µM (inactive) | GI50 (SW-620): > 100 µM (inactive) | GI50 (T47D): 10.9 µM (inactive) | GI50 (TK-10): 23.5 µM (inactive) | GI50 (U-251): 28.1 µM (inactive) | GI50 (UACC-257): 79.3 µM (inactive) | GI50 (UACC-62): 64.6 µM (inactive) | GI50 (UO-31): > 100 µM (inactive)

CCCCCCCC/C=C\CCCCCCC/C=C1\C[C@](/C=C/C(=O)OC)(CO)OC1=O
GI50 (786-0): 1.33 µM (inactive) | GI50 (A498): 8.34 µM (inactive) | GI50 (A549): 4.3 µM (inactive) | GI50 (ACHN): 2.19 µM (inactive) | GI50 (BT-549): 2.33 µM (inactive) | GI50 (CAKI-1): 1.29 µM (inactive) | GI50 (CCRF-CEM): 1.32 µM (inactive) | GI50 (COLO 205): 2.02 µM (inactive) | GI50 (DU-145): 10.8 µM (inactive) | GI50 (EKVX): 10.4 µM (inactive) | GI50 (HCC 2998): 5.36 µM (inactive) | GI50 (HCT-116): 2.16 µM (inactive) | GI50 (HCT-15): 2.75 µM | GI50 (HL-60): 2.15 µM (inactive) | GI50 (HOP-62): 1.86 µM (inactive) | GI50 (HOP-92): 2.94 µM (inactive) | GI50 (HT-29): 5.08 µM (inactive) | GI50 (Hs-578T): 1.25 µM (inactive) | GI50 (IGROV-1): 2.75 µM (inactive) | GI50 (K562): 0.662 µM (active) | GI50 (KM12): 3.37 µM (inactive) | GI50 (LOX IMVI): 1.38 µM (inactive) | GI50 (M14): 1.62 µM (inactive) | GI50 (MCF7): 3.28 µM (inactive) | GI50 (MDA-MB-231): 1.94 µM (inactive) | GI50 (MDA-MB-435): 1.25 µM (inactive) | GI50 (MDA-N): 0.834 µM (active) | GI50 (MOLT-4): 0.611 µM (active) | GI50 (Malme-3M): 1.4 µM (inactive) | GI50 (NCI-H226): 2.61 µM (inactive) | GI50 (NCI-H23): 3.71 µM (inactive) | GI50 (NCI-H460): 3.44 µM (inactive) | GI50 (NCI-H522): 2.58 µM (inactive) | GI50 (NCI/ADR-RES): 3.47 µM (inactive) | GI50 (OVCAR-3): 5.32 µM (inactive) | GI50 (OVCAR-4): 3.2 µM (inactive) | GI50 (OVCAR-5): 5.98 µM (inactive) | GI50 (OVCAR-8): 2.59 µM (inactive) | GI50 (PC-3): 1.79 µM (inactive) | GI50 (RXF 393): 5.28 µM (inactive) | GI50 (SF-268): 1.96 µM (inactive) | GI50 (SF-295): 2.23 µM (inactive) | GI50 (SF-539): 1.78 µM (inactive) | GI50 (SK-MEL-28): 1.6 µM (inactive) | GI50 (SK-MEL-2): 8.41 µM (inactive) | GI50 (SK-MEL-5): 3.31 µM (inactive) | GI50 (SK-OV-3): 6.3 µM (inactive) | GI50 (SN12C): 1.56 µM (inactive) | GI50 (SNB-19): 4.54 µM (inactive) | GI50 (SNB-75): 1.92 µM (inactive) | GI50 (SR): 2.74 µM (inactive) | GI50 (SW-620): 1.78 µM (inactive) | GI50 (T47D): 3.27 µM (inactive) | GI50 (TK-10): 1.93 µM (inactive) | GI50 (U-251): 1.85 µM (inactive) | GI50 (UACC-257): 12.6 µM (inactive) | GI50 (UACC-62): 6.85 µM (inactive) | GI50 (UO-31): 1.15 µM (inactive)
